Publication PMC12663298, “Sibiriline, a novel dual inhibitor of necroptosis and ferroptosis, prevents RIPK1 kinase activity and (phospho)lipid peroxidation as a potential therapeutic strategy” (Cell Death Discovery, 2025)

Columns and labels:
Assay type in all cases: biochemical
JAK2 = JAK2 (Homo sapiens, UniProt O60674); assay: enzymatic kinase assay (Eurofins) at KM,ATP
KIT = KIT (Homo sapiens, UniProt P10721); assay: enzymatic kinase assay (Eurofins) at KM,ATP
AURKC = target: T1, AURKC (Homo sapiens, UniProt Q9UQB9); assay: enzymatic kinase assay (Eurofins) at KM,ATP
T1 sequence (Q9UQB9 1-309): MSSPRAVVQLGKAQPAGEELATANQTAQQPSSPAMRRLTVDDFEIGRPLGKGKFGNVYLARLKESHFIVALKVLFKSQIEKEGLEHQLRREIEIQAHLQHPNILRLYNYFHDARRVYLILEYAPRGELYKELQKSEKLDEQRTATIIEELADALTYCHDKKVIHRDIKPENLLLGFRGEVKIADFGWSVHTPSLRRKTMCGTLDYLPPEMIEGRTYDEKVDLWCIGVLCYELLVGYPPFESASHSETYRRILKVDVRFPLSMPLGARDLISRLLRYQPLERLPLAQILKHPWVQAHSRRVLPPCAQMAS

PDGFR-β = target: T2, PDGFR-β (Homo sapiens, UniProt P09619); assay: enzymatic kinase assay (Eurofins) at KM,ATP
T2 construct: gene PDGFRB
T2 sequence (P09619 33-1106): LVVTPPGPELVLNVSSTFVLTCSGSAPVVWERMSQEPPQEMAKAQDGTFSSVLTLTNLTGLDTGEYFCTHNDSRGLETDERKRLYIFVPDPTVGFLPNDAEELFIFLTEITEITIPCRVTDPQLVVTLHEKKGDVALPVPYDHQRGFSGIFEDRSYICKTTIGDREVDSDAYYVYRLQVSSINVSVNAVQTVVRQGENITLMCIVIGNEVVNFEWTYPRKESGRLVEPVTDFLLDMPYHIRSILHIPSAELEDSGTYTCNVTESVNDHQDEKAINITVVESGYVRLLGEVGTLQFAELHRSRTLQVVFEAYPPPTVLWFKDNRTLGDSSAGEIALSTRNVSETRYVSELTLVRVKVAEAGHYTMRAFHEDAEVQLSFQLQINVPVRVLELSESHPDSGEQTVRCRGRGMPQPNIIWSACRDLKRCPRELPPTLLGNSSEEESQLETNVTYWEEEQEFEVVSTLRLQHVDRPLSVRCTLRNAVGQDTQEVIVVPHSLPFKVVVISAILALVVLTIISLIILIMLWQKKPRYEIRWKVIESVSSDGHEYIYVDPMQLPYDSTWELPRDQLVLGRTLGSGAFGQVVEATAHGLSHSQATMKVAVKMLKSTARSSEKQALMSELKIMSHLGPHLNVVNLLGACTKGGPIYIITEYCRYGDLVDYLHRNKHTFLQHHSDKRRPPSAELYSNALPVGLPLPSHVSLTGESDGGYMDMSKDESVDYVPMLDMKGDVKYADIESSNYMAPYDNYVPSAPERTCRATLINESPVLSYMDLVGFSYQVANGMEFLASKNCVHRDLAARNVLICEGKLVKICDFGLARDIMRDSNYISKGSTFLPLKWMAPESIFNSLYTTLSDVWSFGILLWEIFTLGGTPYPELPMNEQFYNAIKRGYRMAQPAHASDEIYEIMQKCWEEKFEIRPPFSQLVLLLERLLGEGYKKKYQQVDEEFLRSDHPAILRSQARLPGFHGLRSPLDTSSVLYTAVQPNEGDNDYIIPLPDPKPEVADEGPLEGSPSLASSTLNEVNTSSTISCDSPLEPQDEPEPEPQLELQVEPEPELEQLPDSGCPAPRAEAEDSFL

ABL1 = ABL1 (Homo sapiens, UniProt P00519); assay: ADP-Glo kinase assay at KM,ATP
Chain of ABL1 (P00519 whole entry): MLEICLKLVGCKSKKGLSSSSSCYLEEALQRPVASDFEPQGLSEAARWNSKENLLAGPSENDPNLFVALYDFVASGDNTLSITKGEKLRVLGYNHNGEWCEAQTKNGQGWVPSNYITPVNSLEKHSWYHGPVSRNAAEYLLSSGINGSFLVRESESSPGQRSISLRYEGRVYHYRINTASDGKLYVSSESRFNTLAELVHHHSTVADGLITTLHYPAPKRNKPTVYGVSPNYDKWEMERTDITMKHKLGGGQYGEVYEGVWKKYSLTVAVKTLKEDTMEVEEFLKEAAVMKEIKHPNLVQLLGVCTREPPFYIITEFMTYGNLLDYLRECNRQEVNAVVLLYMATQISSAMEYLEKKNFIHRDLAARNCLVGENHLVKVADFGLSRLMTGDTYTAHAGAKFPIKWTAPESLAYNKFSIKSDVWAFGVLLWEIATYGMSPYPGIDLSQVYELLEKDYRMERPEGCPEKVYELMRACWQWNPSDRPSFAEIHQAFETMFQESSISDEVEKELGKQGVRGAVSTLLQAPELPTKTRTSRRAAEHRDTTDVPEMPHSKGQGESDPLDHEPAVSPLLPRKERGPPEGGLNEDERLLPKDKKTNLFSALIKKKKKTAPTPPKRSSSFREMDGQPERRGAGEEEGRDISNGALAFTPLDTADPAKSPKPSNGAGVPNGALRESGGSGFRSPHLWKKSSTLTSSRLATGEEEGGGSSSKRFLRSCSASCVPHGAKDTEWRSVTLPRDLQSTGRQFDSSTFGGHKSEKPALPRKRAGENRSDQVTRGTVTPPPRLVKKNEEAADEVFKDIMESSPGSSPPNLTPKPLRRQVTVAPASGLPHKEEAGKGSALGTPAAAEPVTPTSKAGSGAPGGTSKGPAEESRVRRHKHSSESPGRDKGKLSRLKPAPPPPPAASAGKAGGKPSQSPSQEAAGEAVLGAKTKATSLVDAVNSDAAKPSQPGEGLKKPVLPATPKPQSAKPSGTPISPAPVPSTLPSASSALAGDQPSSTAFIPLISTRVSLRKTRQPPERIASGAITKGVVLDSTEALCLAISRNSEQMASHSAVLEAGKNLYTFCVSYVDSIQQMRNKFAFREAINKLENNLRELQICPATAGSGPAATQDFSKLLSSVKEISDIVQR

DRAK2 = target: T3, DRAK2 (Homo sapiens, UniProt O94768); assay: enzymatic kinase assay (Eurofins) at KM,ATP
T3 construct: gene STK17B
T3 sequence (O94768 1-372): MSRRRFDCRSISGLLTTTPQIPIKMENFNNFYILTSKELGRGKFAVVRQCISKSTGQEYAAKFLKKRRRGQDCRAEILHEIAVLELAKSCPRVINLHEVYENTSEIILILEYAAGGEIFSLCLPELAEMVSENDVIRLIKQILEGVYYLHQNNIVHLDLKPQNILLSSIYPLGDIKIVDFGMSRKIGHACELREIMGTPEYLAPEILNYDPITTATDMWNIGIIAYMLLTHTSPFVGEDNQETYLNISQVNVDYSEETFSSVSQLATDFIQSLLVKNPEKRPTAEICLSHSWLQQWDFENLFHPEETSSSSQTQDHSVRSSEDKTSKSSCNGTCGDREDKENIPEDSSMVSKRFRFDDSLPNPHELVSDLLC

Chain of KIT (P10721 26-976): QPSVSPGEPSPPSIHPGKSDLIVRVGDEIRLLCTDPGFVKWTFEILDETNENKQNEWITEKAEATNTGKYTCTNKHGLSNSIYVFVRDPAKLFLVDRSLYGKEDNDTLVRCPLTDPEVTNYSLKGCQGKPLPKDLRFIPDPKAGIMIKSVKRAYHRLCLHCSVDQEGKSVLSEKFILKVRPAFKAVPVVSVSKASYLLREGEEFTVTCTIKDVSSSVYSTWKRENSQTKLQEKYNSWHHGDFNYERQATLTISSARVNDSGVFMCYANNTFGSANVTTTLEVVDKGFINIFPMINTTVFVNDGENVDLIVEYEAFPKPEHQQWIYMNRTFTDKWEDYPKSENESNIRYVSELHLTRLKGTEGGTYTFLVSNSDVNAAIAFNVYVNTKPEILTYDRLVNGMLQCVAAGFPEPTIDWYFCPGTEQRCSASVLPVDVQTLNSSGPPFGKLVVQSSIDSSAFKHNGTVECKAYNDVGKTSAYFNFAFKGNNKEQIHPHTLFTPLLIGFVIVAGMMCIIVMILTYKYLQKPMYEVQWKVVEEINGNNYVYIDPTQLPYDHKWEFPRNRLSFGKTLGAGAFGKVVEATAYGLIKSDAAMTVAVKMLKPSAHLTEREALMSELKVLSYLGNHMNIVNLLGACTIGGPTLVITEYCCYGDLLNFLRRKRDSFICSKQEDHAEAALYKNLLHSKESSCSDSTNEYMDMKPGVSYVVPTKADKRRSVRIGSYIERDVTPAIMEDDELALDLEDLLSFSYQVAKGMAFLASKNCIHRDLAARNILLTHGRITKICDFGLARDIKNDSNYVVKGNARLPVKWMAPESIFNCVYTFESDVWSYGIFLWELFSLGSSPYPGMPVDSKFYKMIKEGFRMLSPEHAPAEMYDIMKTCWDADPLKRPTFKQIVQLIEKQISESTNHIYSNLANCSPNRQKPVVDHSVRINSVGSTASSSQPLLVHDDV
Chain of JAK2 (O60674 whole entry): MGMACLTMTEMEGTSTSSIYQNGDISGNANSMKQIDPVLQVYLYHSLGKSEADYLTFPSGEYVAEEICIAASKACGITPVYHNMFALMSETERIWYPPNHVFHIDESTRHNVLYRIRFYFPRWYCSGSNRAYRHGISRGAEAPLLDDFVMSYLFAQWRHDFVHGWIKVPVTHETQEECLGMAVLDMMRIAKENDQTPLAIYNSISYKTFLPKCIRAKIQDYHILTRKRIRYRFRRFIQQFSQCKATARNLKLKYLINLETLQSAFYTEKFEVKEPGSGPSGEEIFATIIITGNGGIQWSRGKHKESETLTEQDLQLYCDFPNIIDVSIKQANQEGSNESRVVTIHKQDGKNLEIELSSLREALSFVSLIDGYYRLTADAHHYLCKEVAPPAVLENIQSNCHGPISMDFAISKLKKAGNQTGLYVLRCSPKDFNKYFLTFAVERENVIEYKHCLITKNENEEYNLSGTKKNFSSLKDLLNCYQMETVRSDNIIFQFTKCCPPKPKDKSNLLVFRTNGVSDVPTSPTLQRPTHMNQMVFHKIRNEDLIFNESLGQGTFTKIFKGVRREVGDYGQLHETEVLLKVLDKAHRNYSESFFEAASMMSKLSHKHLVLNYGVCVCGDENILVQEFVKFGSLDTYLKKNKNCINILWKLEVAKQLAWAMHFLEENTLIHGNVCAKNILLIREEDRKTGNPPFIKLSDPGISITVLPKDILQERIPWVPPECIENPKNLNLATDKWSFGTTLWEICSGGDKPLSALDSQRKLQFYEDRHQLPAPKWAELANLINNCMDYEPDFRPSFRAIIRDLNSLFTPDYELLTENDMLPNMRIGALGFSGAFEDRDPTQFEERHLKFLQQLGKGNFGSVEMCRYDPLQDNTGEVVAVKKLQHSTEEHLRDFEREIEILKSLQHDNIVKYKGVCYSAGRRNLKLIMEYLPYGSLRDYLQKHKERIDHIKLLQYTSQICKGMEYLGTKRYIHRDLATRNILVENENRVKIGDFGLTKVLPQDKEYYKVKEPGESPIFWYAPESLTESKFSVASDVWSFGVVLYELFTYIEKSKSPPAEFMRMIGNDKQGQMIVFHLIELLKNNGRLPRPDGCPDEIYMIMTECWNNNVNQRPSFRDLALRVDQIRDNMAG

**Q.** Which IC50 (JAK2) does the source give for `Oc1ccc(-c2cc3cccnc3[nH]2)cc1` [compound 1, 4-(1H-pyrrolo[2,3-b]pyridin-2-yl)phenol] here?
**A.** All kinases tested showed inhibition in the µM range.

**Q.** What about the IC50 (KIT) of the same compound?
**A.** All kinases tested showed inhibition in the µM range.

**Q.** What about the IC50 (AURKC) of the same compound?
**A.** All kinases tested showed inhibition in the µM range.

**Q.** And the IC50 (PDGFR-β)?
**A.** All kinases tested showed inhibition in the µM range.

**Q.** What about the IC50 (ABL1) of the same compound?
**A.** All kinases tested showed inhibition in the µM range.

**Q.** And the IC50 (DRAK2)?
**A.** All kinases tested showed inhibition in the µM range.
